Measurements as given in patent US5594022A, “Tachykinin antagonists” (Warner-Lambert Company, priority 1994, dated 1997).
pIC50: −log10 of the molar value. Entries after “also recorded” stand apart in the source; their conditions may differ.

Assays:
[1] = system: NK1 receptor; details: literature; cited from earlier work
[2] = target: T1, NK1 receptor (Cavia porcellus, UniProt P30547); assay: Antagonism of substance-P methylester in a number of in vitro NK1 preparations; design: species or system guinea pig
T1 construct: guinea pig cerebral cortex membranes; from tissue; host or cells: guinea pig cerebral cortex membranes
From the text: Therefore, it could be of use in therapeutic disorders where attenuation of the NK1 receptor response is an appropriate form of intervention.

[3] = target: T2, NK1 receptor (Guinea Pig Ileum) (Cavia porcellus, UniProt P30547); assay: NK1 antagonist activity, guinea pig ileum; details: read-out: NK1 Antagonist Activity pkB/pA2, Guinea Pig Ileum (converted)
T2 construct: Ileum; from tissue; host or cells: guinea pig ileum

[4] = target: T3, NK1 receptor (Guinea Pig Trachea) (Cavia porcellus, UniProt P30547); assay: NK1 antagonist activity, guinea pig trachea; details: read-out: NK1 Antagonist Activity pkB/pA2, Guinea Pig Trachea (converted)
T3 construct: Trachea; from tissue; host or cells: guinea pig trachea

[5] = target: T1, NK1 receptor; assay: In vitro NK1 receptor binding ([125I] Bolton Hunter Substance-P, guinea pig cerebral cortex membranes); details: Binding IC50, In Vitro NK1 Receptor Binding, [125I-BH]Substance-P 0.1 nM
Procedure: The compounds of the invention were also evaluated in three tachykinin binding assays.

[6] = system: NK2 receptors; details: literature; cited from earlier work
[7] = system: NK3 receptors; details: literature; cited from earlier work

T1 sequence (P30547 whole entry): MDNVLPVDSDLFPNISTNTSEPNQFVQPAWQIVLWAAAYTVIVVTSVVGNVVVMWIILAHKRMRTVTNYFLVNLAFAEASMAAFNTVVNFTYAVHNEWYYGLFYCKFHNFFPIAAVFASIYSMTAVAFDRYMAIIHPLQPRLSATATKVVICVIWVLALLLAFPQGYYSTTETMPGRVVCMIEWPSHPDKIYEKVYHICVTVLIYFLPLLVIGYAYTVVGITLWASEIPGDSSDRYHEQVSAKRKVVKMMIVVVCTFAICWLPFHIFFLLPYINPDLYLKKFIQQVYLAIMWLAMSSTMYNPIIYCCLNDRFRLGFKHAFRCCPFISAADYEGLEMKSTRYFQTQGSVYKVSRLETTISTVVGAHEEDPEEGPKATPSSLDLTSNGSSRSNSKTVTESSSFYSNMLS
T2 sequence (P30547 whole entry): as above
T3 sequence (P30547 whole entry): as above

## COc1ccccc1CN[C@H]1C2CCN(CC2)[C@H]1C(c1ccccc1)c1ccccc1 [CP-96,345]
[1]
  NK1 receptor affinity or activity, in words: antagonists at the NK1 receptor

## C[C@H](NC(=O)[C@@](C)(Cc1c[nH]c2ccccc12)NC(=O)OCc1ccccc1)c1ccccc1 [Example 15]
[2]; listed as Ex. 15
  NK1 receptor antagonism, in words: antagonist of the NK1 receptor; also recorded: tachykinin NK1 receptor antagonist
[2]; read-out: pKB against substance-P methylester on these tissues (converted)
  Kb: ~10 nM
[3]
  Kb: 15.8 nM
[4]
  Kb: 39.8 nM
[5]
  pIC50: 7.44

## CN(Cc1ccccc1)C(=O)[C@H](Cc1ccc2ccccc2c1)NC(=O)[C@@H]1C[C@@H](O)CN1C(=O)c1cn(C)c2ccccc12 [FK 888]
[1]
  NK1 receptor affinity or activity, in words: high affinity for the NK1 receptor

## COc1ccccc1CC(=N)N1C[C@@H]2C(=O)CCC(c3ccccc3)(c3ccccc3)[C@@H]2C1 [RP 67580]
[1]
  NK1 receptor affinity or activity, in words: antagonists at the NK1 receptor

## CC(=O)NC1(c2ccccc2)CCN(CC[C@H](CN(C)C(=O)c2ccccc2)c2ccc(Cl)c(Cl)c2)CC1 [SR 48969]
[6]
  NK2 receptor affinity or selectivity, in words: high affinity and selectivity for NK2 receptors

## NKA: mammalian tachykinin neuropeptide
[6]
  NK2 receptor affinity or selectivity, in words: bind preferentially to NK2

## NKB: mammalian tachykinin neuropeptide
[7]
  NK3 receptor binding, in words: bind preferentially

## Substance-P
[1]
  NK1 receptor affinity or activity, in words: highest affinity for NK1 receptors
